Assay results as given in ChEMBL document CHEMBL5331122, “Structure-Activity Relationship Study of Antimicrobial Peptide PE2 Delivered Novel Linear Derivatives with Potential of Eradicating Biofilms and Low Incidence of Drug Resistance” (J Med Chem, 2023).
Active and inactive are the calls of the source. The calls are words filed in the database; no cut-off is given here.

Assays:
Staphylococcus aureus [1] = assay: Antimicrobial activity against methicillin-resistant Staphylococcus aureus 74 assessed as inhibition of microbial growth incubated for 18 hrs by broth microdilution analysis; type: functional, organism-based; details: Staphylococcus aureus, 74, 18 h
Staphylococcus aureus [2] = assay: Antimicrobial activity against methicillin-resistant Staphylococcus aureus 936 assessed as inhibition of microbial growth incubated for 18 hrs by broth microdilution analysis; type: functional, organism-based; details: Staphylococcus aureus, 936, 18 h
Staphylococcus aureus [3] = assay: Bactericidal activity against Staphylococcus aureus ATCC 25923 assessed as inhibition of bacterial growth at 2 times MIC measured at 30 mins by time-kill assay; type: functional, organism-based
Escherichia coli [4] = assay: Antimicrobial activity against Escherichia coli 850 assessed as inhibition of microbial growth incubated for 18 hrs by broth microdilution analysis; type: functional, organism-based; details: Escherichia coli, 850, 18 h
Staphylococcus aureus [5] = assay: Bactericidal activity against Staphylococcus aureus ATCC 25923 assessed as inhibition of bacterial growth at 2 times MIC measured upto 360 mins by time-kill assay; type: functional, organism-based
Pseudomonas aeruginosa [6] = assay: Antimicrobial activity against Pseudomonas aeruginosa 124 assessed as inhibition of microbial growth incubated for 18 hrs by broth microdilution analysis; type: functional, organism-based; details: Pseudomonas aeruginosa, 124, 18 h
Escherichia coli [7] = assay: Additive antibacterial activity against gentamycin-resistant Escherichia coli ATCC 25922 incubated for 18 hrs by checkerboard assay; type: functional, organism-based
Klebsiella pneumoniae [8] = assay: Antibacterial activity against Klebsiella pneumoniae ATCC 700603 infected in BALB/c mouse pneumonia model assessed as reduction in infiltration of inflammatory cells at 10 mg/kg, ip measured at 4 to 12 hrs by hematoxylin and eosin staining based analysis; type: functional, organism-based; details: time 4-12 hrs
[9] = Acute toxicity in Kunming mouse assessed as survival rate at 20 to 80 mg/kg, ip measured after 4 hrs; type: organism-based; details: in vivo, dose 20-80 mg/kg
Staphylococcus aureus [10] = assay: Antimicrobial activity against methicillin-resistant Staphylococcus aureus 52 assessed as inhibition of microbial growth incubated for 18 hrs by broth microdilution analysis; type: functional, organism-based; details: Staphylococcus aureus, 52, 18 h
Pseudomonas aeruginosa [11] = assay: Antimicrobial activity against Pseudomonas aeruginosa 119 assessed as inhibition of microbial growth incubated for 18 hrs by broth microdilution analysis; type: functional, organism-based; details: Pseudomonas aeruginosa, 119, 18 h
Escherichia coli [12] = assay: Additive antibacterial activity against rifampicin-resistant Escherichia coli ATCC 25922 incubated for 18 hrs by checkerboard assay; type: functional, organism-based
Staphylococcus aureus [13] = assay: Antibacterial activity against rifampicin-resistant Staphylococcus aureus ATCC 25923 assessed as reduction in bacterial growth incubated for 18 hrs by broth microdilution method; type: functional
Escherichia coli [14] = assay: Antimicrobial activity against Escherichia coli 804 assessed as inhibition of microbial growth incubated for 18 hrs by broth microdilution analysis; type: functional, organism-based; details: Escherichia coli, 804, 18 h
Pseudomonas aeruginosa [15] = assay: Antimicrobial activity against Pseudomonas aeruginosa 86 assessed as inhibition of microbial growth incubated for 18 hrs by broth microdilution analysis; type: functional, organism-based; details: Pseudomonas aeruginosa, 86, 18 h
Staphylococcus aureus [16] = assay: Antimicrobial activity against methicillin-resistant Staphylococcus aureus 54 assessed as inhibition of microbial growth incubated for 18 hrs by broth microdilution analysis; type: functional, organism-based; details: Staphylococcus aureus, 54, 18 h
[17] = Hemolytic activity in mouse red blood cells assessed as hemolysis at 128 microg/ml incubated for 1 hr relative to control; type: toxicity, cell-based, Erythrocyte; details: red blood cells (erythrocytes), read-out: Activity
Escherichia coli [18] = assay: Antimicrobial activity against Escherichia coli 780 assessed as inhibition of microbial growth incubated for 18 hrs by broth microdilution analysis; type: functional, organism-based; details: Escherichia coli, 780, 18 h
Staphylococcus aureus [19] = assay: Antimicrobial activity against methicillin-resistant Staphylococcus aureus 48 assessed as inhibition of microbial growth incubated for 18 hrs by broth microdilution analysis; type: functional, organism-based; details: Staphylococcus aureus, 48, 18 h
Klebsiella pneumoniae [20] = assay: Antibacterial activity against Klebsiella pneumoniae ATCC 700603 infected in BALB/c mouse pneumonia model assessed as alveolar expansion at 10 mg/kg, ip measured at 4 to 12 hrs by hematoxylin and eosin staining based analysis; type: functional, organism-based; details: time 4-12 hrs
Escherichia coli [21] = assay: Antimicrobial activity against Escherichia coli ATCC 25922 assessed as reduction in microbial growth measured for 18 hrs in presence of […] microg/ml LPS; type: functional, organism-based
Escherichia coli [22] = assay: Synergistic antibacterial activity against Escherichia coli ATCC 25922 assessed as fractional inhibitory concentration index incubated for 18 hrs in presence of gentamycin by checkerboard assay; type: functional
Staphylococcus aureus [23] = assay: Bactericidal activity against Staphylococcus aureus ATCC 25923 assessed as inhibition of bacterial growth at 2 times MIC measured at 120 mins by time-kill assay; type: functional, organism-based
[24] = Acute toxicity in Kunming mouse assessed as survival rate at 20 to 60 mg/kg, ip measured after 4 hrs; type: organism-based; details: in vivo, dose 20-60 mg/kg
Staphylococcus aureus [25] = assay: Bactericidal activity against Staphylococcus aureus ATCC 25923 assessed as inhibition of bacterial growth at 0.5 to 2 times MIC measured at 180 mins by time-kill assay; type: functional, organism-based
[26] = Hemolytic activity in mouse red blood cells assessed as hemolysis at 256 microg/ml incubated for 1 hr relative to control; type: toxicity, cell-based, Erythrocyte; details: red blood cells (erythrocytes), at 256 µg/mL, read-out: Activity
Escherichia coli [27] = assay: Synergistic antibacterial activity against Escherichia coli ATCC 25922 assessed as fractional inhibitory concentration index incubated for 18 hrs in presence of rifampicin by checkerboard assay; type: functional
Escherichia coli [28] = assay: Synergistic antibacterial activity against Escherichia coli ATCC 25922 assessed as fractional inhibitory concentration index incubated for 18 hrs in presence of PMB by checkerboard assay; type: functional
Escherichia coli [29] = assay: Bactericidal activity against Escherichia coli ATCC 25922 assessed as inhibition of bacterial growth at 0.5 to 2 times MIC measured at 90 mins by time-kill assay; type: functional, organism-based
Escherichia coli [30] = assay: Bactericidal activity against Escherichia coli ATCC 25922 assessed as inhibition of bacterial growth at 1 times MIC measured at 120 mins by time-kill assay; type: functional, organism-based
Staphylococcus aureus [31] = assay: Bactericidal activity against Staphylococcus aureus ATCC 25923 assessed as inhibition of bacterial growth at 2 times MIC measured at 60 mins by time-kill assay; type: functional, organism-based

CCCCCCCC(=O)N[C@@H](CCN)C(=O)N[C@H](C(=O)N[C@@H](CCN)C(=O)N[C@H](Cc1ccccc1)C(=O)N[C@@H](CC(C)C)C(=O)N[C@@H](CCN)C(=O)N[C@@H](C(=O)N[C@@H](CC(C)C)C(=O)N[C@@H](Cc1ccc(O)cc1)C(N)=O)C(C)C)[C@@H](C)CC
EC50 (Staphylococcus aureus [1]): 5.1 µg/mL
EC50 (Staphylococcus aureus [2]): 6.12 µg/mL
Activity (Staphylococcus aureus [3]): Active
EC50 (Escherichia coli [4]): 2.42 µg/mL
Activity (Staphylococcus aureus [5]): Active
EC50 (Pseudomonas aeruginosa [6]): 2.76 µg/mL
Activity (Escherichia coli [7]): Active
Activity (Klebsiella pneumoniae [8]): Active
Activity [9]: Toxic
EC50 (Staphylococcus aureus [10]): 4.46 µg/mL
EC50 (Pseudomonas aeruginosa [11]): 2.31 µg/mL
Activity (Escherichia coli [12]): Active
MIC (Staphylococcus aureus [13]): < 8 µg/mL
EC50 (Escherichia coli [14]): 2.36 µg/mL
EC50 (Pseudomonas aeruginosa [15]): 2.08 µg/mL
EC50 (Staphylococcus aureus [16]): 4.33 µg/mL
hemolysis at 1 h, 128 µg/mL [17]: 10%
EC50 (Escherichia coli [18]): 2.55 µg/mL
EC50 (Staphylococcus aureus [19]): 5.48 µg/mL
Activity (Klebsiella pneumoniae [20]): Active
Activity (Escherichia coli [21]): Active

CCCCCCC(=O)N[C@@H](CCN)C(=O)N[C@H](C(=O)N[C@@H](CCN)C(=O)N[C@H](Cc1ccccc1)C(=O)N[C@@H](CC(C)C)C(=O)N[C@@H](CCN)C(=O)N[C@@H](C(=O)N[C@@H](CC(C)C)C(=O)N[C@@H](Cc1ccc(O)cc1)C(N)=O)C(C)C)[C@@H](C)CC
fractional inhibitory concentration index (FICI) (Escherichia coli [22]): 0.5
Activity (Staphylococcus aureus [23]): Active
Activity [24]: Toxic
Activity (Staphylococcus aureus [25]): Active
hemolysis at 1 h, 256 µg/mL [26]: < 10%
Activity (Escherichia coli [7]): Active
Activity (Escherichia coli [12]): Active
fractional inhibitory concentration index (FICI) (Escherichia coli [27]): 0.312
MIC (Staphylococcus aureus [13]): < 8 µg/mL
fractional inhibitory concentration index (FICI) (Escherichia coli [28]): 0.312

CC[C@H](C)[C@@H]1NC(=O)[C@H](CCN)NC(=O)C[C@@H](C(C)C)OC(=O)[C@H]([C@@H](C)O)NC(=O)[C@H](CC(C)C)NC(=O)[C@@H](C(C)C)NC(=O)[C@H](CCN)NC(=O)[C@H](CC(C)C)NC(=O)[C@@H](Cc2ccccc2)NC(=O)[C@H](CCN)NC1=O
Activity (Escherichia coli [29]): Active
Activity (Escherichia coli [30]): Active
Activity (Staphylococcus aureus [31]): Active
